Laboratory results as given in patent US20260132132A1, “3A,4,5,6-TETRAHYDRO-1 H-PYRAZOLO[3,4-C]PYRIDIN-7(7AH)-ONE DERIVATIVES AS FACTOR XIIA INHIBITORS” (KALVISTA PHARMACEUTICALS LIMITED, priority 2022, published 2026).
pIC50: −log10 of the molar value.

Assays:
[1] = target: T1, Human Factor XIIa (hFXIIa) (Homo sapiens, UniProt P00748); test: Determination of Human Factor XIIa (hFXIIa) inhibition, fluorogenic substrate IC50 assay; assay type: biochemical; conditions: fluorogenic substrate H-DPro-Phe-Arg-AFC at Km, 25° C., read-out: Human FXIIa IC50
T1 construct: purchased Enzyme Research Laboratories
T1 sequence (P00748 373-615 limits assumed): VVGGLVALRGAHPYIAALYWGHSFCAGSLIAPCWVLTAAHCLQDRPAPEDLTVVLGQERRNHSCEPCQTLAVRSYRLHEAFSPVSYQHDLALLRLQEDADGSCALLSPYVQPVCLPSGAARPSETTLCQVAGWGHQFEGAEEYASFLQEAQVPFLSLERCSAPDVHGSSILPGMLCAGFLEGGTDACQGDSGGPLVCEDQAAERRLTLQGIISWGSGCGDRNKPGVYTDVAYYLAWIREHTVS
T1 sequence (P00748 20-372 partner limits assumed): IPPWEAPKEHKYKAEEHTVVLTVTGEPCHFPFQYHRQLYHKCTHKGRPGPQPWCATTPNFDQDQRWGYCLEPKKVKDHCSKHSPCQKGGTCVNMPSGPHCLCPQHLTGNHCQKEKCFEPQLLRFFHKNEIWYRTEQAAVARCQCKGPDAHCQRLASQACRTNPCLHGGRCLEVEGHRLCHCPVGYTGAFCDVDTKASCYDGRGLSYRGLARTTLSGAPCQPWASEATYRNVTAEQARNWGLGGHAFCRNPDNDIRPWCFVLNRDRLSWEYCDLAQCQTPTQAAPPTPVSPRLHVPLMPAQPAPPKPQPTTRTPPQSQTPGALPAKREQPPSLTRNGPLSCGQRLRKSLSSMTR
Experimental: Determination of Human Factor XIIa (hFXIIa) inhibition
The Km for the cleavage of the substrate by hFXIIa was determined by standard transformation of the Michaelis-Menten equation, with subsequent inhibition assays performed at substrate Km concentration.

[2] = target: FXa (Homo sapiens, UniProt P00742); test: Related protease inhibition: FXa, fluorogenic substrate; assay type: biochemical; conditions: fluorogenic substrate at Km, 25° C.; H1-H3 = % activity at 40 μM
Experimental: Human serine protease enzyme Plasma Kallikrein, KLK1, FXa, Plasmin, Thrombin and Trypsin were assayed for enzymatic activity using an appropriate fluorogenic substrate at Km concentration, FXIa at fixed substrate concentration of 100 μM and various concentrations of the test compound.

Chain of FXa (P00742 235-488 limits assumed): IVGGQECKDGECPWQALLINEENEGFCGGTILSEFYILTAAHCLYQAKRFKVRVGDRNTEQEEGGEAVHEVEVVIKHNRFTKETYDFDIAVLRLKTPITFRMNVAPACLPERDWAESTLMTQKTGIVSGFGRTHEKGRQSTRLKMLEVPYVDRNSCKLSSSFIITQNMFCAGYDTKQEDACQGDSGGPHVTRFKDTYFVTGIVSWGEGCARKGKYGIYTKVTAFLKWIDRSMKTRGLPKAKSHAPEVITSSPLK
Chain of FXa (P00742 41-179 partner limits assumed): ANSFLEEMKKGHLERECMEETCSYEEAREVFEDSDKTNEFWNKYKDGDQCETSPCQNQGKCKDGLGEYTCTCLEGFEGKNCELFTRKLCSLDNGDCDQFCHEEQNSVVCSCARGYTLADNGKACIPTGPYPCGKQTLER

Compound	pIC50 [1]	pIC50 [2]
Cc1ncccc1CNC(=O)c1nn(-c2cccc(Cl)c2)c2c1CCN(c1ccc3c(c1)CN(CCO)CC3)C2=O [Example 1111, 1-(3-chlorophenyl)-6-(2-(2-hydroxyethyl)-1,2,3,4-tetrahydroisoquinolin-7-yl)-N-((2-methylpyridin-3-yl)methyl)-7-oxo-4,5,6,7-tetrahydro-1H-pyrazolo[3,4-c]pyridine-3-carboxamide]	7.00 to 8.00	4.40 to 5.00
CC1(C)OCCC1NC(=O)c1nn(-c2cccc(Cl)c2)c2c1CCN(c1ccc3c(c1)CN(CCO)CC3)C2=O (stereo not shown) [Example 1112, 1-(3-chlorophenyl)-N-(2,2-dimethyltetrahydrofuran-3-yl)-6-(2-(2-hydroxyethyl)-1,2,3,4-tetrahydroisoquinolin-7-yl)-7-oxo-4,5,6,7-tetrahydro-1H-pyrazolo[3,4-c]pyridine-3-carboxamide]	6.52 to 7.00	< 4.40
O=C(NCC1CC1)c1nn(-c2cccc(Cl)c2)c2c1CCN(c1ccc3c(c1)CN(C(=O)CO)CC3)C2=O [Example 1114, 1-(3-chlorophenyl)-N-(cyclopropylmethyl)-6-(2-(2-hydroxyacetyl)-1,2,3,4-tetrahydroisoquinolin-7-yl)-7-oxo-4,5,6,7-tetrahydro-1H-pyrazolo[3,4-c]pyridine-3-carboxamide]	5.00 to 5.52	< 4.40
CCN1CCc2cnc(N3CCc4c(C(=O)NCC5CC5)nn(-c5cccc(Cl)c5)c4C3=O)cc2C1 [Example 1117, 1-(3-Chlorophenyl)-N-(cyclopropylmethyl)-6-(6-ethyl-5,6,7,8-tetrahydro-2,6-naphthyridin-3-yl)-7-oxo-4,5,6,7-tetrahydro-1H-pyrazolo[3,4-c]pyridine-3-carboxamide]	6.52 to 7.00	4.40 to 5.00
O=C(NCC1CC1)c1nn(-c2cccc(Cl)c2)c2c1CCN(c1cc3c(cn1)CCN(CCO)C3)C2=O [Example 1118, 1-(3-chlorophenyl)-N-(cyclopropylmethyl)-6-(6-(2-hydroxyethyl)-5,6,7,8-tetrahydro-2,6-naphthyridin-3-yl)-7-oxo-4,5,6,7-tetrahydro-1H-pyrazolo[3,4-c]pyridine-3-carboxamide]	6.52 to 7.00	< 4.40
CCN1CCc2c(F)cc(N3CCc4c(C(=O)NCC5CC5)nn(-c5cccc(Cl)c5)c4C3=O)cc2C1 [Example 1121, 1-(3-chlorophenyl)-N-(cyclopropylmethyl)-6-(2-ethyl-5-fluoro-1,2,3,4-tetrahydroisoquinolin-7-yl)-7-oxo-4,5,6,7-tetrahydro-1H-pyrazolo[3,4-c]pyridine-3-carboxamide]	6.52 to 7.00	< 4.40
O=C(NCC1CC1)c1nn(-c2cccc(Cl)c2)c2c1CCN(c1cc(F)c3c(c1)CN(CCO)CC3)C2=O [Example 1122, 1-(3-Chlorophenyl)-N-(cyclopropylmethyl)-6-(5-fluoro-2-(2-hydroxyethyl)-1,2,3,4-tetrahydroisoquinolin-7-yl)-7-oxo-4,5,6,7-tetrahydro-1H-pyrazolo[3,4-c]pyridine-3-carboxamide]	6.52 to 7.00	< 4.40
O=C(NCC1CC1)c1nn(-c2cccc(Cl)c2)c2c1CCN(c1cc3c(cc1F)CCN(CCO)C3)C2=O [Example 1123, 1-(3-chlorophenyl)-N-(cyclopropylmethyl)-6-(6-fluoro-2-(2-hydroxyethyl)-1,2,3,4-tetrahydroisoquinolin-7-yl)-7-oxo-4,5,6,7-tetrahydro-1H-pyrazolo[3,4-c]pyridine-3-carboxamide]	6.52 to 7.00	< 4.40
Cc1cc(CNC(=O)c2nn(-c3cccc(Cl)c3)c3c2CCN(c2cc4c(cc2F)CCN(CCO)C4)C3=O)[nH]n1 [Example 1125, 1-(3-chlorophenyl)-6-(6-fluoro-2-(2-hydroxyethyl)-1,2,3,4-tetrahydroisoquinolin-7-yl)-N-((3-methyl-1H-pyrazol-5-yl)methyl)-7-oxo-4,5,6,7-tetrahydro-1H-pyrazolo[3,4-c]pyridine-3-carboxamide]	7.00 to 8.00	4.40 to 5.00
Cc1cncc(CNC(=O)c2nn(-c3cccc(Cl)c3)c3c2CCN(c2ccc4c(c2)CN(CCO)CC4)C3=O)c1 [Example 1126, 1-(3-chlorophenyl)-6-(2-(2-hydroxyethyl)-1,2,3,4-tetrahydroisoquinolin-7-yl)-N-((5-methylpyridin-3-yl)methyl)-7-oxo-4,5,6,7-tetrahydro-1H-pyrazolo[3,4-c]pyridine-3-carboxamide]	7.00 to 8.00	4.40 to 5.00
O=C(NCc1cc(C2CC2)n[nH]1)c1nn(-c2cccc(Cl)c2)c2c1CCN(c1ccc3c(c1)CN(CCO)CC3)C2=O [Example 1127, 1-(3-chlorophenyl)-N-((3-cyclopropyl-1H-pyrazol-5-yl)methyl)-6-(2-(2-hydroxyethyl)-1,2,3,4-tetrahydroisoquinolin-7-yl)-7-oxo-4,5,6,7-tetrahydro-1H-pyrazolo[3,4-c]pyridine-3-carboxamide]	7.00 to 8.00	4.40 to 5.00
Cc1ccncc1CNC(=O)c1nn(-c2cccc(Cl)c2)c2c1CCN(c1ccc3c(c1)CN(C)CC3)C2=O [Example 1129, 1-(3-chlorophenyl)-6-(2-methyl-1,2,3,4-tetrahydroisoquinolin-7-yl)-N-((4-methylpyridin-3-yl)methyl)-7-oxo-4,5,6,7-tetrahydro-1H-pyrazolo[3,4-c]pyridine-3-carboxamide]	7.00 to 8.00	5.00 to 5.52
O=C(NCc1ncccc1F)c1nn(-c2cccc(Cl)c2)c2c1CCN(c1ccc3c(c1)CN(CCO)CC3)C2=O [Example 1130, 1-(3-chlorophenyl)-N-((3-fluoropyridin-2-yl)methyl)-6-(2-(2-hydroxyethyl)-1,2,3,4-tetrahydroisoquinolin-7-yl)-7-oxo-4,5,6,7-tetrahydro-1H-pyrazolo[3,4-c]pyridine-3-carboxamide]	7.00 to 8.00	4.40 to 5.00
Cn1ccc(CNC(=O)c2nn(-c3cccc(Cl)c3)c3c2CCN(c2ccc4c(c2)CN(CCO)CC4)C3=O)n1 [Example 1132, 1-(3-chlorophenyl)-6-(2-(2-hydroxyethyl)-1,2,3,4-tetrahydroisoquinolin-7-yl)-N-((1-methyl-1H-pyrazol-3-yl)methyl)-7-oxo-4,5,6,7-tetrahydro-1H-pyrazolo[3,4-c]pyridine-3-carboxamide]	7.00 to 8.00	4.40 to 5.00
Cc1ccncc1CNC(=O)c1nn(-c2cccc(Cl)c2)c2c1CCN(c1cc3c(cc1F)CCN(CCO)C3)C2=O [Example 1134, 1-(3-Chlorophenyl)-6-(6-fluoro-2-(2-hydroxyethyl)-1,2,3,4-tetrahydroisoquinolin-7-yl)-N-((4-methylpyridin-3-yl)methyl)-7-oxo-4,5,6,7-tetrahydro-1H-pyrazolo[3,4-c]pyridine-3-carboxamide]	7.00 to 8.00	4.40 to 5.00
COc1ccc(CNC(=O)c2nn(-c3cccc(Cl)c3)c3c2CCN(c2ccc4c(c2)CN(C)CC4)C3=O)cn1 [Example 1135, 1-(3-chlorophenyl)-N-((6-methoxypyridin-3-yl)methyl)-6-(2-methyl-1,2,3,4-tetrahydroisoquinolin-7-yl)-7-oxo-4,5,6,7-tetrahydro-1H-pyrazolo[3,4-c]pyridine-3-carboxamide]	7.00 to 8.00	5.52 to 6.00
O=C(NCc1cncc(F)c1)c1nn(-c2cccc(Cl)c2)c2c1CCN(c1ccc3c(c1)CN(CCO)CC3)C2=O [Example 1137, 1-(3-chlorophenyl)-N-((5-fluoropyridin-3-yl)methyl)-6-(2-(2-hydroxyethyl)-1,2,3,4-tetrahydroisoquinolin-7-yl)-7-oxo-4,5,6,7-tetrahydro-1H-pyrazolo[3,4-c]pyridine-3-carboxamide]	7.00 to 8.00	4.40 to 5.00
COc1ccc(CNC(=O)c2nn(-c3cccc(Cl)c3)c3c2CCN(c2ccc4c(c2)CN(CCO)CC4)C3=O)cn1 [Example 1138, 1-(3-chlorophenyl)-6-(2-(2-hydroxyethyl)-1,2,3,4-tetrahydroisoquinolin-7-yl)-N-((6-methoxypyridin-3-yl)methyl)-7-oxo-4,5,6,7-tetrahydro-1H-pyrazolo[3,4-c]pyridine-3-carboxamide]	7.00 to 8.00	5.00 to 5.52
Cc1cccc(CNC(=O)c2nn(-c3cccc(Cl)c3)c3c2CCN(c2ccc4c(c2)CN(CCO)CC4)C3=O)n1 [Example 1139, 1-(3-chlorophenyl)-6-(2-(2-hydroxyethyl)-1,2,3,4-tetrahydroisoquinolin-7-yl)-N-((6-methylpyridin-2-yl)methyl)-7-oxo-4,5,6,7-tetrahydro-1H-pyrazolo[3,4-c]pyridine-3-carboxamide]	7.00 to 8.00	4.40 to 5.00
CCN1CCc2ccc(N3CCc4c(C(=O)NCc5cnccc5C)nn(-c5cccc(Cl)c5)c4C3=O)cc2C1 [Example 1140, 1-(3-chlorophenyl)-6-(2-ethyl-1,2,3,4-tetrahydroisoquinolin-7-yl)-N-((4-methylpyridin-3-yl)methyl)-7-oxo-4,5,6,7-tetrahydro-1H-pyrazolo[3,4-c]pyridine-3-carboxamide]	7.00 to 8.00	5.00 to 5.52
